Test results published in patent US12427146B2, “C-terminal SRC kinase inhibitors” (INVENTISBIO CO., LTD., priority 2018, dated 2025).

How the values were obtained:
LCK protein = LCK protein (Homo sapiens (Human), UniProt P06239); experiment: LCK Inhibition Assay; assay type: biochemical
Procedure: Test compound was dissolved in DMSO at 10 mM. 45 uL of compound was transfer into a 384-well compound source plate (LABCYTE cat #P-05525) and serially diluted at 1:3 ratio to create a 11-point dilutions. The same volume of DMSO was adopted as high control. 20 nL of these compounds DMSO dilutes were dispensed into a new 384-well assay plate by Echo 550. LCK protein (0.50 nM, Cama Biosciences, cat #08-170), florescent labeled substrate FLPeptide4 (2 μM, PerkinElmer, cat #760348) was prepared in kinase assay buffer (50 mM HEPES (pH 7.5), 10 mM MgCl2, 0.01% Brij-35, 2 mM DTT and 0.005 mg/ml BSA). 15 uL of kinase assay buffer containing LCK protein and substrate was transferred to assay plate and incubate at RT for 30 minutes. Kinase assay buffer supplemented with substrate peptides was employed as low control to monitor the background. 400 μM ATP was prepared in kinase assay buffer and 5 μL of ATP solution was added to each well to start the reaction. The assay plate was incubated at 25° C. for 90 minutes and the reaction was stopped by adding 40 μL of 0.5 M EDTA.
(§1) Phosphorylated fluorescent-tagged peptides were differentiated from non-phosphorylated peptides by separating using Caliper EZ Reader II and the detection was directly converted to conversion ratio.
(§2) For estimation of IC50, the % substrate conversion values are transformed to % Inhibition Ratio by applying the following equation: […]

CSK protein = CSK protein (Homo sapiens (Human), UniProt P41240); experiment: CSK Inhibition Assay; assay type: biochemical
CSK protein, sequence (P41240 whole entry): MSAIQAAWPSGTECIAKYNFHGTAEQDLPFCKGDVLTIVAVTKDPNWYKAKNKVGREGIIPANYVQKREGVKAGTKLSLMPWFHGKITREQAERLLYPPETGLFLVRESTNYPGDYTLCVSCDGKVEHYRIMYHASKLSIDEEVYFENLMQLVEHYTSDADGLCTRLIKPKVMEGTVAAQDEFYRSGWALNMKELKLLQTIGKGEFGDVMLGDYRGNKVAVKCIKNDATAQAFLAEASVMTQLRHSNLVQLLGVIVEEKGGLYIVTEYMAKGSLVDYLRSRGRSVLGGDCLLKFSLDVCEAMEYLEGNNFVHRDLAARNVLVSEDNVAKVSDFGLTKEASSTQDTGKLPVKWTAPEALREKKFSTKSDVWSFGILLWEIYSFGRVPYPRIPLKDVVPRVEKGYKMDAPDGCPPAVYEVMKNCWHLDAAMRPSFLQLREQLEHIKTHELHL
Procedure: Test compound was dissolved in DMSO at 10 mM. 45 uL of compound was transferred into a 384-well compound source plate (LABCYTE cat #P-05525) and serially diluted at 1:3 ratio to create a 11-point dilutions. The same volume of DMSO was adopted as high control. 20 nL of these compounds DMSO dilutes were dispensed into a new 384-well assay plate by Echo 550. […] 15 uL of kinase assay buffer containing CSK protein and substrate was transferred to assay plate and incubated at RT for 30 minutes. Kinase assay buffer supplemented with substrate peptides was employed as low control to monitor the background. 4 μM of ATP was prepared in kinase assay buffer and 5 μL of ATP solution was added to each well to start the reaction. The assay plate was incubated at 25° C. for 90 minutes and the reaction was stopped by adding 40 μL of 0.5 M EDTA.
as §1, §2

LCK protein, sequence (P06239 whole entry): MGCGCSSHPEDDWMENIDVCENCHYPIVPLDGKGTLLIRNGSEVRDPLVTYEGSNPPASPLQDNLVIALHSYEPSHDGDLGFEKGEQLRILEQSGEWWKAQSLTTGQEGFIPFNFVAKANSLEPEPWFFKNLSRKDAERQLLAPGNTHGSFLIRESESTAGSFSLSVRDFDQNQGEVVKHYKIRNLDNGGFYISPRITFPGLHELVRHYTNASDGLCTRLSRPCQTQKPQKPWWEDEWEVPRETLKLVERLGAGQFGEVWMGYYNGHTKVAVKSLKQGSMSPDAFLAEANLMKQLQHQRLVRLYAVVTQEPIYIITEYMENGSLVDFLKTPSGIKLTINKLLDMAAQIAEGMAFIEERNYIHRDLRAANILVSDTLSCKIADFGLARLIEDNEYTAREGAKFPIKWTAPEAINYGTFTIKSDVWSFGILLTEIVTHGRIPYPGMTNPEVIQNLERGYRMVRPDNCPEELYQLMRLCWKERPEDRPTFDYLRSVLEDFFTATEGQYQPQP

Structure (SMILES)	IC50 (LCK protein)	IC50 (CSK protein)
CNc1nccc(-c2sc(-c3ccc(F)cn3)nc2-c2cccc(NS(=O)(=O)c3c(F)cccc3F)c2F)n1 [compound 34]	> 1000 nM	42.9 nM
CNc1nccc(-c2sc(-c3cncc(F)c3)nc2-c2cc(Cl)cc(NS(=O)(=O)c3c(F)cccc3F)c2F)n1 [Compound 140]	> 1000 nM	16.5 nM
Cc1ncc(-c2nc(-c3cccc(NS(=O)(=O)c4c(Cl)cccc4Cl)c3F)c(-c3ccnc(N)n3)s2)cn1 [Compound 141]	100 to 1000 nM	6.8 nM
CNc1nccc(-c2sc(-c3cncc(F)c3)nc2-c2cccc(NS(=O)(=O)c3c(Cl)cccc3Cl)c2F)n1 [Compound 127]	> 1000 nM	5.8 nM
CNc1nccc(-c2sc(-c3ccc(F)cn3)nc2-c2cccc(NS(=O)(=O)c3c(F)ccc(C)c3F)c2F)n1 [Compound 55]	> 1000 nM	30.3 nM
CNc1nccc(-c2sc(-c3cccc(F)c3)nc2-c2cccc(NS(=O)(=O)c3c(F)ccc(C)c3F)c2F)n1 [Compound 71]	> 1000 nM	41.8 nM
Cc1ncc(-c2nc(-c3cccc(NS(=O)(=O)c4c(F)ccc(C)c4F)c3F)c(-c3ccnc(NC4CC4)n3)s2)cn1 [Compound 156]	> 1000 nM	9.3 nM
Cc1ccc(F)c(S(=O)(=O)Nc2cccc(-c3nc(-c4cncc(F)c4)sc3-c3ccnc(NCCO)n3)c2F)c1F [Compound 167]	> 1000 nM	15.9 nM
CN(C)c1nc(-c2cccc(NS(=O)(=O)c3c(F)ccc(Cl)c3F)c2F)c(-c2ccnc(NC3CC3)n2)s1 [Compound 187]	> 1000 nM	7.3 nM
Cc1ccc(-c2nc(-c3cccc(NS(=O)(=O)c4c(F)ccc(C)c4F)c3F)c(-c3ccnc(NC4CC4)n3)s2)nn1 [Compound 173]	> 1000 nM	10.3 nM
CNc1nccc(-c2sc(N3CCCC3=O)nc2-c2cccc(NS(=O)(=O)c3c(F)cccc3F)c2F)n1 [Compound 113]	> 1000 nM	23.8 nM
COc1ccc(-c2nc(-c3cccc(NS(=O)(=O)c4c(F)cccc4F)c3F)c(-c3ccnc(N)n3)s2)cc1 [Compound 5]	> 1000 nM	62.7 nM
Cc1ccc(-c2nc(-c3cccc(NS(=O)(=O)c4c(F)ccc(C)c4F)c3F)c(-c3ccnc(NCCO)n3)s2)nn1 [Compound 174]	> 1000 nM	17.5 nM
Nc1nccc(-c2sc(N3CCCCC3)nc2-c2cccc(NS(=O)(=O)c3c(F)cccc3F)c2F)n1 [Compound 111]	100 to 1000 nM	16.4 nM
CNc1nccc(-c2sc(C(C)(C)C)nc2-c2cccc(NS(=O)(=O)c3c(F)cccc3F)c2F)n1 [Compound 117]	> 1000 nM	81.5 nM
COc1cc(NS(=O)(=O)c2c(F)cccc2F)cc(-c2nc(-c3ccccc3)sc2-c2ccnc(N)n2)c1 [Compound 19]	100 to 1000 nM	28.2 nM
O=S(=O)(Nc1cccc(-c2nc(-c3cncc(F)c3)sc2-c2ccnc(NC3CC3)n2)c1F)c1c(F)ccc(Cl)c1F [Compound 171]	> 1000 nM	5.6 nM
Nc1nccc(-c2sc(-c3cncc(F)c3)nc2-c2cccc(NS(=O)(=O)c3c(Cl)cccc3Cl)c2F)n1 [Compound 62]	> 1000 nM	9.4 nM
COc1ccn2c(-c3ccnc(N)n3)c(-c3cccc(NS(=O)(=O)c4c(F)cccc4F)c3F)nc2c1 [compound 91]	> 1000 nM	52.7 nM
CNc1nccc(-c2sc(-c3cncc(F)c3)nc2-c2cc(OC)cc(NS(=O)(=O)c3c(F)cccc3F)c2F)n1 [Compound 72]	> 1000 nM	26.1 nM
Nc1nccc(-c2sc(-c3ccccc3)nc2-c2cncc(NS(=O)(=O)c3c(F)cccc3F)c2)n1 [compound 25]	> 1000 nM	237 nM
Nc1nccc(-c2c(-c3cccc(NS(=O)(=O)c4c(F)cccc4F)c3F)nc3cc(C(=O)O)ccn23)n1 [Compound 96]	> 1000 nM	127 nM
Nc1nccc(-c2sc(-c3ccc(=O)[nH]c3)nc2-c2cccc(NS(=O)(=O)c3c(F)cccc3F)c2F)n1 [compound 28]	> 1000 nM	63.3 nM
Cc1ncc(-c2nc(-c3cccc(NS(=O)(=O)c4c(Cl)ccc(C)c4Cl)c3F)c(-c3ccnc(NCCO)n3)s2)cn1 [Compound 152]	> 1000 nM	6 nM

Structure (SMILES)	IC50 (LCK protein)	IC50 (CSK protein)
O=S(=O)(Nc1cccc(-c2nc(-c3cncc(F)c3)sc2-c2ccnc(NC3CC3)n2)c1F)c1c(F)cccc1F [Compound 68]	> 1000 nM	16.2 nM
CCOc1ncc(-c2nc(-c3cccc(NS(=O)(=O)c4c(F)cccc4F)c3F)c(-c3ccnc(N)n3)s2)cn1 [compound 7]	> 1000 nM	306 nM
NC(=O)c1ccn2c(-c3ccnc(N)n3)c(-c3cccc(NS(=O)(=O)c4c(F)cccc4F)c3F)nc2c1 [Compound 94]	> 1000 nM	98.6 nM
CNc1nccc(-c2sc(-c3ccc(F)cn3)nc2-c2cccc(NS(=O)(=O)c3c(Cl)ccc(C)c3Cl)c2F)n1 [Compound 126]	> 1000 nM	30.2 nM
Cc1cncc(-c2nc(-c3cccc(NS(=O)(=O)c4c(F)cccc4F)c3F)c(-c3ccnc(N)n3)s2)c1 [Compound 47]	100 to 1000 nM	29.4 nM
O=S(=O)(Nc1cccc(-c2nc(-c3ccc(F)cn3)sc2-c2ccnc(NCCO)n2)c1F)c1c(Cl)cccc1Cl [Compound 133]	> 1000 nM	17.8 nM
Nc1nccc(-c2sc(-c3cncc(F)c3)nc2-c2cccc(NS(=O)(=O)c3c(F)cccc3F)c2F)n1 [Compound 17]	> 1000 nM	25 nM
CNc1nccc(-c2sc(-c3cnccn3)nc2-c2cccc(NS(=O)(=O)c3c(F)cccc3F)c2F)n1 [Compound 76]	> 1000 nM	19.1 nM
O=S(=O)(Nc1cccc(-c2nc(-c3ccccc3)sc2-c2ccnc(Nc3ccc(N4CCOCC4)nc3)n2)c1F)c1c(F)cccc1F [compound 3]	< 100 nM	13.4 nM
COc1ccn2c(-c3ccnc(NC4CC4)n3)c(-c3cccc(NS(=O)(=O)c4c(F)ccc(C)c4F)c3F)nc2c1 [Compound 129]	> 1000 nM	7.4 nM
CC(C)Oc1ccn2c(-c3ccnc(N)n3)c(-c3cccc(NS(=O)(=O)c4c(F)cccc4F)c3F)nc2c1 [Compound 104]	> 1000 nM	134 nM
COc1ccn2c(-c3ccnc(NCCO)n3)c(-c3cccc(NS(=O)(=O)c4c(Cl)cccc4Cl)c3F)nc2c1 [Compound 159]	> 1000 nM	28.4 nM
Cc1ncc(-c2nc(-c3cccc(NS(=O)(=O)c4c(F)ccc(C)c4F)c3F)c(-c3ccnc(NCCO)n3)s2)cn1 [Compound 155]	> 1000 nM	16.6 nM
COc1ccc(-c2nc(-c3cccc(NS(=O)(=O)c4c(F)cccc4F)c3F)c(-c3ccnc(N)n3)s2)cn1 [compound 27]	100 to 1000 nM	26.9 nM
COc1ccn2c(-c3ccnc(NCCO)n3)c(-c3cccc(NS(=O)(=O)c4c(F)ccc(C)c4F)c3F)nc2c1 [Compound 130]	> 1000 nM	215 nM
CNc1nccc(-c2sc(N3CCCCC3)nc2-c2cccc(NS(=O)(=O)c3c(Cl)cccc3Cl)c2F)n1 [Compound 166]	100 to 1000 nM	13.5 nM
CC(C)(C)c1nc(-c2cccc(NS(=O)(=O)c3c(F)ccc(Cl)c3F)c2F)c(-c2ccnc(NC3CC3)n2)s1 [Compound 188]	> 1000 nM	11.4 nM
COC(=O)N[C@H](C)CNc1nccc(-c2sc(-c3ccccc3)nc2-c2cccc(NS(=O)(=O)c3c(F)cccc3F)c2F)n1 [Compound 60]	> 1000 nM	120 nM
COc1ccn2c(-c3ccnc(NC4CC4)n3)c(-c3cccc(NS(=O)(=O)c4c(Cl)cccc4Cl)c3F)nc2c1 [Compound 158]	> 1000 nM	170 nM
Nc1ncc(-c2nc(-c3cccc(NS(=O)(=O)c4c(F)cccc4F)c3F)c(-c3ccnc(N)n3)s2)cn1 [compound 6]	100 to 1000 nM	19.8 nM
O=S(=O)(Nc1cccc(-c2nc(N3CCCCC3)sc2-c2ccnc(NC3CC3)n2)c1F)c1c(F)ccc(Cl)c1F [Compound 185]	> 1000 nM	4.9 nM
Cc1ccc(Cl)c(S(=O)(=O)Nc2cccc(-c3nc(-c4ccc(F)cn4)sc3-c3ccnc(N)n3)c2F)c1Cl [Compound 125]	> 1000 nM	15.3 nM
COc1cc2nc(-c3cccc(NS(=O)(=O)c4c(F)cccc4F)c3F)c(-c3ccnc(N)n3)n2cc1Cl [Compound 100]	> 1000 nM	137 nM
COC(=O)NCCNc1nccc(-c2sc(-c3ccccc3)nc2-c2cccc(NS(=O)(=O)c3c(F)cccc3F)c2F)n1 [Compound 59]	> 1000 nM	68.4 nM
